Measured values as given in PubChem BioAssay (NCI).
Several values for one entry are separate records, joined by “and”; a condition that tells them apart may be missing. Equal values may be shown once.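 Compound exposure: 48 hours, 5 concentrations, 96-well plates. GI50 is the concentration that inhibits growth by half. The concentration for full growth arrest is given as TGI.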

Assays:
Assay in all cases: growth of human tumour cells (NCI), 48 h
A498 renal = tested on: A498 renal
ACHN renal = tested on: ACHN renal
HL-60(TB) leukemia = tested on: HL-60(TB) leukemia
MDA-MB-231 breast = tested on: MDA-MB-231 breast
NCI-H226 lung = tested on: NCI-H226 lung
NCI/ADR-RES ovarian = tested on: NCI/ADR-RES ovarian
SF-295 CNS = tested on: SF-295 CNS
SF-539 CNS = tested on: SF-539 CNS
SK-MEL-2 melanoma = tested on: SK-MEL-2 melanoma
UACC-62 melanoma = tested on: UACC-62 melanoma

| Structure (SMILES) | GI50 (A498 renal) | TGI (A498 renal) | GI50 (ACHN renal) | TGI (ACHN renal) | GI50 (HL-60(TB) leukemia) [µM] | TGI (HL-60(TB) leukemia) | GI50 (MDA-MB-231 breast) | TGI (MDA-MB-231 breast) | TGI (NCI-H226 lung) | GI50 (NCI/ADR-RES ovarian) | TGI (NCI/ADR-RES ovarian) | GI50 (SF-295 CNS) | TGI (SF-295 CNS) | GI50 (SF-539 CNS) | TGI (SF-539 CNS) | GI50 (SK-MEL-2 melanoma) | TGI (SK-MEL-2 melanoma) | GI50 (UACC-62 melanoma) | TGI (UACC-62 melanoma) | GI50 (NCI-H226 lung) |
| --- | --- | --- | --- | --- | --- | --- | --- | --- | --- | --- | --- | --- | --- | --- | --- | --- | --- | --- | --- | --- |
| CCn1c(CO)nn(-c2cc(O[C@@H](C)C(F)(F)F)c(C(=O)Nc3c(F)cccc3Cl)cc2F)c1=O | 3.84 µM | > 100 µM | < 0.0122 µM | > 100 µM | 0.0357 | > 46.7 µM | > 20.1 µM | > 100 µM | > 100 µM | < 0.0245 µM | > 93.5 µM | < 0.01 µM | > 100 µM | < 0.01 µM | > 100 µM | > 28.4 µM | > 100 µM | < 0.0217 µM | > 100 µM |  |
| C[C@]12CC[C@H](O)C[C@H]1CC[C@@H]1[C@@H]2CC[C@]2(C)[C@@H](C3=CC(=O)OC3)CC[C@]12O | 0.0591 µM | 0.378 µM |  | 0.825 µM | 0.0391 | 0.272 µM |  | > 62.2 µM | 2.83 µM |  | 0.573 µM | 0.0292 µM | 0.0959 µM |  | 0.16 µM |  | 1.56 µM | 0.32 µM | 1.09 µM |  |
| O=C(/C=C/c1cc(CN2CCOCC2)c(O)c2ncccc12)c1cc(CN2CCOCC2)c(O)c2ncccc12 | 0.246 µM | 18 µM | 0.0329 µM | > 100 µM | 0.0309 |  | 0.145 µM | > 100 µM | 41.8 µM | 0.091 µM | > 100 µM | 0.0529 µM | > 36.4 µM | 0.0433 µM | 23.6 µM | 0.0637 µM | 4.99 µM | 0.0457 µM |  | 0.43 µM |
| [Au+].[Au+].[Au+].[c-]1nccn1Cc1ccccc1.[c-]1nccn1Cc1ccccc1.[c-]1nccn1Cc1ccccc1 | 16.1 µM | 33.6 µM | 14.3 µM | 28.6 µM | 3.16 | 16 µM | 22 µM | 70.5 µM | 71.4 µM | 58 µM | > 100 µM | 10.5 µM | 40.2 µM | 2.96 µM | 9.15 µM | 1.98 µM | 3.9 µM | 5.23 µM | 21.4 µM | 14.6 µM |
| CC(C)CNC(=O)O |  | > 100 µM |  | > 100 µM |  | > 100 µM |  | > 100 µM | > 100 µM |  | > 100 µM |  | > 100 µM |  | > 100 µM |  | > 100 µM |  | > 100 µM |  |
| C=C1C(=O)O[C@H]2[C@H]1CC/C(COC(=O)c1ccc(Cl)nc1)=C\CC[C@@]1(C)O[C@@H]21 | 17.8 µM | 32.7 µM | 1.68 µM | 3.6 µM | 1.57 | 4.72 µM | 2.4 µM | 5.7 µM | 6.78 µM | 5.03 µM | 23.9 µM | 10.9 µM | 22.9 µM | 1.61 µM | 3.61 µM | 2.06 µM | 5.51 µM | 1.63 µM | 3.74 µM | 2.66 µM |
| CCC(C)(C)c1ccc(OCCCCCCN2CCNCC2)cc1 | 6.82 µM | 24.5 µM | 2.19 µM | 5.45 µM | 1.76 | 3.65 µM | 1.44 µM | 3.11 µM | 18 µM | 3.11 µM | 8.95 µM | 1.87 µM | 3.6 µM | 1.85 µM | 3.65 µM | 2.19 µM | 4.74 µM | 1.76 µM | 3.52 µM | 3.87 µM |
| Nc1nc(SN=Nc2ccc(S(N)(=O)=O)cc2)c2[nH]cnc2n1 | 1.35 µM | 7.47 µM | 1.6 µM | > 100 µM | 2.18 | > 53.6 µM | 0.722 µM | > 100 µM | > 100 µM | 0.455 µM | > 100 µM | 0.363 µM | > 100 µM | 0.552 µM | > 100 µM | 1.24 µM | > 100 µM | 0.379 µM | 5.62 µM | 0.867 µM |
| COc1cc2c(cc1O)C1Cc3ccc(OC)c(O)c3C(C2)N1C (stereo not given) |  | > 100 µM |  | > 100 µM |  | > 100 µM |  | > 100 µM | > 100 µM |  | > 100 µM |  | > 100 µM |  | > 100 µM |  | > 100 µM |  | > 100 µM |  |
| COc1cc2c(c(OC)n1)[C@]1(O)[C@H](O)[C@H](CN(C)C)[C@@H](c3ccccc3)[C@]1(c1ccc(C#N)cc1)O2 | 0.0192 µM and 0.0201 µM | 0.0518 µM and 0.0773 µM | < 0.0116 µM and 0.0117 µM | 0.148 µM and 0.558 µM | < 0.01 | 0.921 µM and 0.213 µM | 0.0336 µM and 0.0242 µM | 1.72 µM and 1.48 µM | 4.34 µM and 1.28 µM | 0.0546 µM and 0.071 µM | 3.89 µM and 2.93 µM | 0.0212 µM and 0.0231 µM | 0.811 µM and 1.84 µM | 0.0142 µM and < 0.0116 µM | 0.0963 µM and 0.122 µM | 0.0319 µM and 0.034 µM | 0.318 µM and 0.369 µM | 0.0359 µM and 0.0358 µM | 2.63 µM and 4.34 µM | 0.0254 µM and < 0.0131 µM |
| O=c1[nH]cnc2cccc(Cl)c12 |  | > 100 µM |  | > 100 µM |  | > 100 µM |  | > 100 µM | > 100 µM |  | > 100 µM |  | > 100 µM |  | > 100 µM |  | > 100 µM |  | > 100 µM |  |
| COc1ccc(-c2c[nH]c(=S)n2-c2ccc(OC)cc2)cc1 | > 50 µM | > 50 µM | > 50 µM | > 50 µM | > 50 | > 50 µM | > 50 µM | > 50 µM | > 50 µM | > 50 µM | > 50 µM | > 50 µM | > 50 µM | > 50 µM | > 50 µM | > 50 µM | > 50 µM | > 50 µM | > 50 µM | > 50 µM |
| CCOC(=O)CNC(=O)c1ccccc1Nc1ccnc(C(F)(F)F)c1 | 64 µM | > 100 µM | > 58.2 µM | > 100 µM | 33.2 | > 100 µM | 33.4 µM | > 73.1 µM | > 100 µM | > 71.5 µM | > 100 µM | 54.4 µM | > 100 µM | 28 µM | > 100 µM | 44.6 µM | > 72.4 µM | 22.4 µM | > 61.2 µM | > 100 µM |
| NC(CS/C(Cl)=C/Cl)C(=O)O (stereo not given) | 8.7 µM | 33.8 µM | 78.9 µM | > 100 µM | 51.7 | > 100 µM | > 100 µM | > 100 µM | > 100 µM | 31.8 µM | > 100 µM | 3.17 µM | 12.3 µM | > 100 µM | > 100 µM | 22.2 µM | > 100 µM | 57 µM | > 100 µM | > 100 µM |
| COc1ccc2c(c1)C(C)Cc1c(ncnc1-n1c(C)nc3ccccc31)N2C (stereo not given) | 2.15 µM | 9.03 µM | 6.56 µM | 23.1 µM | 2.59 | 9.7 µM | 4.56 µM | 28.2 µM | 36.1 µM | 2 µM | 19.3 µM | 1.79 µM | 7.85 µM | 2.34 µM | 6.92 µM | 4.48 µM | 17.8 µM | 4.83 µM | 22.3 µM | 11.5 µM |
| O=C(Nc1ccc(Br)cc1)c1ccc(Cl)c(Cl)c1 | 0.207 µM | 3.75 µM | 2.83 µM | > 28.6 µM | 2.14 | 7.37 µM | 3.24 µM | > 100 µM | > 100 µM | 3.24 µM | > 100 µM | 2.03 µM | 4.94 µM | 4.01 µM | > 100 µM | 3.59 µM | > 29.8 µM | 2.92 µM | > 100 µM | 2.86 µM |
| COc1ccc2c(O)cc3c(c2c1)[C@H](CCl)CN3C(=O)c1cc2cc(NC(=O)CCN3CCOCC3)ccc2[se]1 | < 0.001 µM | < 0.001 µM | < 0.001 µM | < 0.001 µM | 0.00142 | > 10 µM | < 0.001 µM | 0.105 µM | 0.00163 µM | < 0.001 µM |  | < 0.001 µM | < 0.001 µM | < 0.001 µM | 0.00264 µM | < 0.001 µM | < 0.001 µM | < 0.001 µM | < 0.001 µM | < 0.001 µM |
